# Columns and labels:
# [1] = tested on: JFH-1-infected HCC36 cells; test: Retention of TAT-ΔNS3/4A-FITC in HCV-infected cells, fluorescence microscopy; format: cell-based, Human; details: fluorescence microscope
# Method: (§1) Infectious HCV particles were generated as previously described ([Hayashi et al., 2014]). HCC36 cells (1 × 10^5) were seeded in DMEM containing 10% serum in a 24-well plate at 37°C in a CO2 incubator overnight. The cells were infected with JFH-1 and incubated with or without 2 μM telaprevir. After 5 days, the parental HCC36 and JFH-1-infected cells were stained with 10 μM of TAT-ΔNS3/4A-FITCat 37 °C for 1 h. After probe staining, the cells were washed using DMEM containing 10% serum per 20 min until the end of the experiment. After 8 h washing, the fluorescence of viable cells was observed under a fluorescence microscope at the indicated times (Axiovert 200, Carl Zeiss MicroImaging, GmbH, Germany).
# (§2) FIGURE 2 Specific retention of TAT-ΔNS3/4A-FITC in NS3/4A-HCC36- and HCV-infected cells. HCC36 cells, NS3/4A-HCC36 cells, or JFH-1-infected HCC36 cells were incubated with 10 μM TAT-ΔNS3/4A-FITC in the absence or presence of 2 μM telaprevir (NS3/4A protease inhibitor) at 37°C for 1 h. The cells were washed with DMEM containing 10% serum three times per hour. After culturing for 1 or 8 h, the phase contrast and fluorescence of viable cells were observed under a fluorescence microscope. Scale bar: 100 μm.
# NS3/4A-HCC36 cells [2] = test: Retention of TAT-ΔNS3/4A-FITC in cells, fluorescence microscopy; format: cell-based, Human; details: fluorescence microscope
# Method: (§3) HCC36 or NS3/4A-HCC36 cells (1 × 10^5) were seeded with DMEM containing 10% serum in a 24-well plate at 37°C in a CO2 incubator overnight. The cells were incubated with 10 μM of TAT-ΔNS3/4A-FITC in the presence or absence of 2 μM telaprevir (purchased from Legend Star International, Taiwan) at 37°C for 1 h. After probe staining, the cells were washed using DMEM containing 10% serum per 20 min until the end of the experiment. After 8 h washing, the fluorescence of viable cells was observed under a fluorescence microscope at the indicated times (Axiovert 200, Carl Zeiss MicroImaging, GmbH, Germany).
# as §2
# HEK293 cells = details: HEK293, 0.1–2,000 ug/ml, 72 h, cell viability by cellular ATP synthesis, compared with CPT-11
# [3] = tested on: JFH-1-infected HCC36 cells; test: Specific retention of probe via flow cytometry; format: cell-based, Human
# Method: (§4) We also used the WT probe (GRKKRRQRRR-[…]-LKKKYK-FITC) and the scrambled sequence probe (GRKKRRQRRR-[…]-LKKKYK) that could not be activated by protease as a control group to test the specific retention of probe via flow cytometry. HCC36 cells, NS3/4A-HCC36 cells, or JFH-1-infected HCC36 cells were incubated with 10 μM TAT-ΔNS3/4A-FITC or 10 μM TAT-scrambled NS3/4A-FITC in the absence or presence of 2 μM telaprevir (NS3/4A protease inhibitor) at 37 °C for 1 h. The cells were washed with DMEM containing 10% serum three times per hour. After culturing for 1 or 8 h, the fluorescence of viable cells was observed via flow cytometry.
# (§5) Supplementary file Image_5.TIF: Supplementary Figure 5 To evaluate the specific retention of probe via flow cytometry, we used the WT probe (GRKKRRQRRR-[…]-LKKKYK-FITC) and the scrambled sequence probe (GRKKRRQRRR-[…]-LKKKYK) that could not be activated by protease as a control group to test the specific retention of probe via flow cytometry. HCC36 cells, NS3/4A-HCC36 cells, or JFH-1-infected HCC36 cells were incubated with 10 μM TAT-ΔNS3/4A-FITC or 10 μM TAT-scrambled NS3/4A-FITC in the absence or presence of 2 μM telaprevir (NS3/4A protease inhibitor) at 37°C for 1 h. The cells were washed with DMEM containing 10% serum three times per hour. After culturing for 1 or 8 h, the fluorescence of viable cells was observed via flow cytometry. Click here for additional data file.
# HCC36 cells [4] = test: Specific retention of probe via flow cytometry; format: cell-based, Human; details: control HCC36 cells
# Method: as §4, §5
# NS3/4A-HCC36 cells [5] = test: Specific retention of probe via flow cytometry; format: cell-based, Human
# Method: as §4, §5
# [6] = tested on: NS3/4A-HCC36 and HCC36 tumors; test: Histological analysis of FITC fluorescence in tumor sections after i.v. probe; format: in vivo, BALB/c nude mice; details: i.v. 500 μM (in 100 μL), 4 h after injection, frozen sections, n = 3 mice
# Method: BALB/c nude mice (n = 3) bearing established HCC36 and NS3/4A-HCC36 (100–200 mm^3) tumors in their right and left hind legs, respectively, were intravenously injected with 500 μM (in 100 μL) TAT-ΔNS3/4A-FITC and sacrificed 4 h later. Tumors were excised and embedded in OCT compound (Tissue-Tek, CA) in liquid nitrogen. The adjacent tumor sections either directly detect the FITC-fluorescent intensity to observe the accumulation of TAT-ΔNS3/4A-FITC probe or stained with a 520 HCV protease Assay Kit (AnaSpec) to visualize NS3/4A activity. The sections were examined on an upright BX4 microscope (Olympus, Melville, NY, USA) or viewed under phase contrast or fluorescence fields on an inverted Axiovert 200 microscope (Carl Zeiss Microimaging, Thornwood, NY, USA).
# FIGURE 3 Specific retention of TAT-ΔNS3/4A-FITC in NS3/4A-expressing tumors in vivo. Mice bearing established NS3/4A-HCC36 and HCC36 tumors were injected with 500 μM TAT-NS3/4A-FITC and sacrificed after 4 h. Sections of NS3/4A-HCC36 (upper panels) and HCC36 (lower panels) tumors were stained with 520 HCV protease Assay Kit (AnaSpec) to detect NS3/4A activity in tumor sections. FITC-derived fluorescence (green) and NS3/4A activity (red) were observed under a fluorescence microscope. Scale bar: 1 mm.
# HCC36 cells [7] = test: Retention of TAT-ΔNS3/4A-FITC in control cells, fluorescence microscopy; format: cell-based, Human; details: fluorescence microscope
# Method: as §3
# as §1, with “After probe staining, the cells were washed using DMEM containing 10% serum per 20 min until the end of the experiment.” left out
# FIGURE 2 Specific retention of TAT-ΔNS3/4A-FITC in NS3/4A-HCC36- and HCV-infected cells. […] After culturing for 1 or 8 h, the phase contrast and fluorescence of viable cells were observed under a fluorescence microscope. […]
# [8] = 10 μM probe 1 h, washed every 20 min, 8 h
# [9] = 10 μM probe + 2 μM telaprevir, 8 h
# [10] = 10 μM probe, 37°C, 1 h staining
# [11] = 10 μM probe 1 h, washed three times per hour, 8 h
substance,measurement,setting,value
"GRKKRRQRRR-DEDEDEDEMEECASH-LKKKYK-FITC [TAT-ΔNS3/4A-FITC, cell-penetrating Tat peptide, HCV NS3/4A protease substrate and hydrophilic domain (KKKYK), labeled by FITC]",fluorescence retention after culturing for 8 h,[1]; [8],strong fluorescence only accumulated in NS3/4A-HCC36 cells and HCV-infected HCC36 cells
same,fluorescence retention after 8 h in presence of NS3/4A inhibitor,[1]; [9],did not accumulate
same,fluorescence accumulation after probe staining,[1]; [10],strong fluorescence accumulated in each cell
same,fluorescence retention after culturing for 8 h,"NS3/4A-HCC36 cells [2]; 10 μM probe 1 h, washed with DMEM 10% serum every 20 min, 8 h",strong fluorescence only accumulated in NS3/4A-HCC36 cells
same,fluorescence retention after 8 h in presence of NS3/4A inhibitor,NS3/4A-HCC36 cells [2]; [9],did not accumulate
same,fluorescence accumulation after probe staining,NS3/4A-HCC36 cells [2]; [10],strong fluorescence accumulated in each cell
same,"in vitro toxicity, growth of HEK293",HEK293 cells,could not inhibit the growth of HEK293
same,fluorescence retention after culturing for 8 h,[3]; [11],strong fluorescence of WT probe only accumulated in NS3/4A-HCC36 cells and HCV-infected HCC36 cells
same,fluorescence retention after 8 h in presence of telaprevir,[3]; [9],could block via the 2 μM telaprevir
same,fluorescence after 1 h probe staining,"[3]; 10 μM probe, 37°C, 1 h",strong fluorescence of WT probe accumulated in each cell
same,fluorescence retention after culturing for 8 h,HCC36 cells [4]; [11],not in control HCC36 cells
same,fluorescence after 1 h probe staining,"HCC36 cells [4]; 10 μM probe, 37°C, 1 h",strong fluorescence of WT probe accumulated in each cell
same,fluorescence retention after culturing for 8 h,NS3/4A-HCC36 cells [5]; [11],strong fluorescence of WT probe only accumulated in NS3/4A-HCC36 cells
same,fluorescence retention after 8 h in presence of telaprevir,NS3/4A-HCC36 cells [5]; [9],could block via the 2 μM telaprevir
same,fluorescence after 1 h probe staining,"NS3/4A-HCC36 cells [5]; 10 μM probe, 37°C, 1 h",strong fluorescence of WT probe accumulated in each cell
same,FITC-derived fluorescence in NS3/4A-HCC36 tumor sections,[6],accumulated in the NS3/4A-HCC3 tumors
same,fluorescence retention after culturing for 8 h,HCC36 cells [7]; [8],not in control HCC36 cells
same,fluorescence accumulation after probe staining,HCC36 cells [7]; [10],strong fluorescence accumulated in each cell
